This is an account of results in patent publication US12054466B2, “Compounds for the treatment of clostridium difficile infection” (University of Notre Dame du Lac, priority 2016, dated 2024).

The subject of one data set is C. difficile infection. As to conditions: cited from earlier work.
In a further data set the test system is C. difficile. As to the kind of experiment: MIC against C. difficile (strain not named; 14 strains overall). As to conditions: 14 C. difficile strains. The format is cell-based, Clostridium difficile.
In data set [1] the test system is C. difficile strain ATCC 43255. As to the kind of experiment: Mouse model of recurrent CDI, survival. As to conditions: po once a day for 5 days; oxadiazole 2 20 mg/kg/day, vancomycin 50 mg/kg/day.
Data set [2] can be described thus: Toxicity and fecal concentration after multiple oral doses.
The subject of a further data set is C. difficile ATCC43255. The data set is described as follows: Inhibition of vegetative cells, spores and toxins in exponential phase cells.
For data set [3], the system named is C. difficile strain ATCC 43255. The data set is described as follows: Mouse model of recurrent CDI, second study: fecal cell, spore and toxin evaluation. The format is in vivo, mice. The method, then:
C. difficile Mouse Model. […] A negative vehicle control will be included. […] This study was conducted in duplicates.
A second study was conducted with oxadiazole 2 given po at 20 or 40 mg/kg for 5 days and vancomycin administered at 50 mg/kg po for 5 days. Fecal samples were collected on days 3, 7, and 10 for C. difficile spore and toxin evaluation.

The conditions of data set [4]: mouse, in vivo, po, 20 mg/kg, 24 h.
Data set [5] concerns DNA, protein and peptidoglycan synthesis in C. difficile ATCC 43255. The data set is described as follows: Macromolecular synthesis assays. The format is cell-based. An excerpt:
Macromolecular synthesis assays. The method of Mathur et al (J Antimicrob Chemother 2011, 66(5), 1087) was used with a few modifications. [2,8-^3H]-adenine (40 Ci/mmol), 1-[3,4,5-^3H(N)]-leucine (120 Ci/mmol), and N-acetyl-d-[6-^3H]-glucosamine (30 Ci/mmol) were purchased from Perkin Elmer (Waltham, MA). Ciproflaxin, linezolid, and oxacillin, were used as positive controls for DNA, protein, and peptidoglycan, respectively. Ciprofloxacin and oxacillin were purchased from Sigma-Aldrich (St. Louis, MO), linezolid was obtained from AmplaChem Inc. (Carmel, IN). […] Aliquots were taken every 30 min for radioactive counting and viability. Optimal incubation times were 60 min for DNA, 180 min for protein, and 120 min for peptidoglycan.

Data set [6] can be described thus: Pharmacokinetics after single po and iv administration.
For data set [7] the following is noted: cited from earlier work.
[8] abbreviates: 40 mg/kg/day po for 5 days, uninfected mice.
Where [9] appears, read: female, C57B1/6, mouse, feces, po, 40 mg/kg/day.
The mark [10] stands for this setting: summary statement, species not given.

Read-outs that look alike come from different tables or passages of the source.

Regarding `CCc1c(Cl)c(O)c(Cl)c(O)c1C(=O)O[C@H]1[C@H](O)[C@H](OC)[C@H](OC/C2=C\C=C\C[C@H](O)/C(C)=C/[C@H](CC)[C@@H](O[C@@H]3OC(C)(C)[C@@H](OC(=O)C(C)C)[C@H](O)[C@@H]3O)/C(C)=C/C(C)=C/C[C@@H]([C@@H](C)O)OC2=O)O[C@@H]1C` [fidaxomicin], the Treatment failure in the data set on C. difficile infection (CDI) is listed as 12%. In the data set with C. difficile infection (patients treated for CDI), the “Patients with recurrence of the infection” value was “About 25%”. The “MIC range in 14 C. difficile strains” value against C. difficile was less than 0.01 to 0.25 µg/mL.

As to `Oc1ccc(-c2nc(-c3ccc(OC4CCCC4)cc3)no2)cc1` [Compound 2], the “Survival after 25 days” value in data set [1] is 70%. For the same molecule, in data set [2] (setting [8]), the Tolerability result is reported as “well tolerated” and the Weight loss result is on record as “did not result in weight loss”. For the same molecule, the Body weight in data set [2] (Day 1, 40 mg/kg/day po for 5 days, uninfected mice) is 19.6 ± 0.6 g. The same molecule displayed a Body weight in data set [2] (Day 2, 40 mg/kg/day po for 5 days, uninfected mice) of 19.8 ± 0.6 g. Besides, in [2] (Day 3, 40 mg/kg/day po for 5 days, uninfected mice), the Body weight was 19.8 ± 1.0 g. In data set [2] (Day 4, 40 mg/kg/day po for 5 days, uninfected mice), the Body weight is listed as 19.7 ± 1.0 g. Further, the Body weight in [2] (Day 5, 40 mg/kg/day po for 5 days, uninfected mice) worked out at 19.4 ± 0.6 g. Besides, the “Oxadiazole 2 in Feces” value in data set [2] (Day 5, 40 mg/kg/day po for 5 days, uninfected mice, 40 mg/kg/day) is given as 30.8 ± 11.1 μg/g feces. The concentration at 5 day in [2] (female, C57B1/6, mouse, feces, oral, 40 mg/kg) is 30800 ng/mL. In data set [2] (setting [9]), the concentration at 1 day amounted to 9800 ± 400 ng/g, the concentration at 2 day came to 15000 ± 3700 ng/g, the concentration at 3 day worked out at 18100 ± 2400 ng/g and the concentration at 4 day is 16900 ± 1800 ng/g. In [2] (setting [9]), this molecule displayed a concentration at 5 day of 30800 ± 11100 ng/g. For the same molecule, in the data set on C. difficile ATCC43255 (24 hours), the “Concentration that inhibited growth of vegetative cells” value was determined as 1 ×MIC. Moreover, the “Concentration that inhibited toxin production” value in the data set with C. difficile ATCC43255 (24 hours, TcdA and TcdB by ELISA) turned out to be 1 ×MIC. Besides, in the data set on C. difficile ATCC43255 (48 hours), the “Concentration that inhibited spore production” value is listed as “¼” and the “Concentration that inhibited toxin production” value is recorded as 1 ×MIC. In the data set on C. difficile ATCC43255 (72 hours), the “Concentration that inhibited spores” value is recorded as 1 ×MIC, the “Concentration that inhibited toxin production” value amounted to 1 ×MIC and the “Concentration that inhibited vegetative cells” value worked out at 1 ×MIC. For the same molecule, the “Decrease in spores in feces” value in [3] (20 mg/kg group) is on record as 3 log. Besides, the “Total cell counts in feces, lower on day 10 compared to day 3” value in [3] (20 mg/kg/day for 5 days) is listed as 3.44 log. The Spores in feces result in data set [3] (40 mg/kg group, days 3, 7 and 10, in words) was “no spores were observed at any time”. For the same molecule, the “Toxin production in feces” value in data set [3] (40 mg/kg group, in words) is reported as “no toxin production was detected”. Besides, the “Total cell counts in feces, lower on day 10 compared to day 3” value in data set [3] (40 mg/kg/day for 5 days) came to 4.68 log. In addition, in [3] (b100, 20 mg/kg), the “Reduction in spores in feces” value amounted to 1.85 log. Besides, the “Reduction in vegetative cells in feces by day 10” value in data set [3] (dose of compound 2 not stated) is “about 3 log”. For the same molecule, the “Level in feces as multiple of MIC” value in data set [4] is given as “approximately 20 ×MIC”. In addition, the “Inhibition of peptidoglycan synthesis” value in data set [5] (N-acetyl-d-[6-3H]-glucosamine incorporation, ½ MIC, 120 min) turned out to be 54.8±3.7%. Moreover, the “Inhibition of DNA synthesis” value in data set [5] ([2,8-3H]adenine incorporation, in words) is reported as “not significant”. Further, in data set [5] (l-[3,4,5-3H(N)]-leucine incorporation, in words), the “Inhibition of protein synthesis” value is “not significant”. Further, the “Clearance as share of hepatic blood flow” value in [6] (mice, 20 mg/kg iv) is given as “approximately 20%”. For the same molecule, the “Absolute oral bioavailability F” value in data set [6] (mice, 20 mg/kg po vs iv, 20 mg/kg) worked out at 4%. The same molecule gave a concentration at 24 h in [6] (mouse, feces, po, 20 mg/kg) of 43000 ± 3000 ng/g. Further, in data set [6] (mouse, plasma, iv, 20 mg/kg), the area under the curve AUC(0-inf) (as a rule, total exposure, with the tail of the curve extrapolated) was 19200 ng·h/mL; the Vd is 1.8 L/kg; the clearance was found to be 17.4 mL/min/kg; the half-life (usually the time in which the quantity being followed falls by half) was 1.2 h. For the same molecule, the bioavailability (in general, the share of a dose that reaches the circulation, judged against a reference dose that is usually intravenous) in data set [6] (mouse, plasma, oral, 20 mg/kg, Absolute oral bioavailability F, mice, 20 mg/kg po vs iv) amounted to 3.8%. Besides, in data set [6] (mouse, plasma, po, 20 mg/kg), the total exposure AUC(0-inf) was 733 ng·h/mL, the concentration peaked (Cmax) at 300 ng/mL and the half-life is 1.1 h.

For the molecule `FC(F)(F)c1ccc(Oc2ccc(-c3noc(-c4ccc5[nH]ccc5c4)n3)cc2)cc1` [Compound 1], the clearance entry in [7] (in words) is recorded as “low clearance”. Moreover, in data set [7] (setting [10]), the Oral bioavailability is 97% and the Terminal half-life is 18.6 h.
